PMC9095875, “Solubility measurement and thermodynamic modeling of pantoprazole sodium sesquihydrate in supercritical carbon dioxide” (Scientific Reports, 2022)
Where “and” joins values, the source holds several entries; their conditions need not be identical. Equal entries are not always repeated. Marks after values point to notes of the source that are not given here.

What was measured:
[1] = Thermodynamic properties calculated from constants of the Chrastil, reformulated Chrastil and Bartle solubility models; format: physicochemical
From the text: It is the first solvate complex model and correlates solubility as a function of supercritical fluid density and temperature as:18 y2=ρ1^κ-1[…] where κ and E0-E1 are model constants. Since Eq. (13) is dimensionally inconsistent[24],[26],[39], it is dimensionally corrected and known as Reformulated […] model:19 y2=[…] where κ^' and E0-E1 are model constants. It is one of the successful empirical models and correlates solubility as a function of temperature, supercritical fluid density and total pressure as:20 […] where G0-G2 are model constants. From parameter G1 , the vaporization enthalpy is ΔvapH=-G1R in which R is universal gas constant. The new solution model proposed in this work has three adjustable parameters ( ΔCp , a11 and a22 ). For regression, these parameters are treated as temperature dependent and temperature independent. Although conceptually, these parameters are temperature dependent[43],[44], however, in literature, these parameters are handled as temperature independent over a small temperature range[45]. Therefore, both temperature dependent and independent results are reported in this study. For regression, melting temperature and molar volume of pantoprazole sodium sesquihydrate are needed. The required melting temperature is obtained from the material's source and the molar volume of the solid pantoprazole sodium sesquihydrate is calculated using Immirzi and […] method. […] The proposed model correlates the data less than 14.9% and 16.23% in terms of AARD% for temperature dependent and independent cases, respectively. […] The correlations of the solubility data with temperature dependent parameters are better than temperature independent parameters. […], Sodeifian et al., and […] models correlate the solubility data. The correlations of the data are quite satisfactory for […] model compared to […] and Sodeifian models. From the conventional model constants, the thermodynamic properties, namely total heat of enthalpy of vaporization and solvation are calculated and reported in Table 6. […]

[2] = Solubility of solid drug in supercritical carbon dioxide (isobaric-isothermal method, UV-Vis at 290 nm); format: physicochemical; conditions: for y2 × 10^4 (mole fraction): value is y2 × 10^4
Procedure: The method utilized is considered as the isobaric-isothermal method. Each measurement is performed with high precision, during experiments; temperature is maintained at desired value within ± 0.1 K. A known amount of pantoprazole sodium sesquihydrate drug (solute) has been used in the equilibrium cell to measure the solubility data. The capacity of the cell is 70 mL. A magnetic stirrer was mounted with the cell to measure the solubility data. A magnetic stirrer that is mounted with the equilibrium cell helps in attaining equilibrium between the solute and the ScCO2. To confirm equilibrium attainment, the experiments are done with a fresh sample at specified temperature and pressure at various time intervals (5 min, 10 min, 20 min, 30 min, 40 min, 50 min and 60 min) and the solubility readings are recorded. It is observed that the solubility is independent of time after 30 min. Thus, for correct results after 60 min, samples are considered for analysis. After equilibrium, 600 μL of a saturated sample is collected in dematerialized water (DM water's conductivity is 1μS/cm) via a 6-way port, two-status valve. More details are readily available elsewhere[30],[31]. This experimental setup has already been validated in the previous work with alpha-tocopherol and naphthalene. Each experiment is carried out in triplicate. Spectrophotometer (UV-Visible, Model UNICO-4802) is utilized to quantify the pantoprazole sodium sesquihydrate solubility. The drug test samples were prepared by dissolving known weights of drug in known volume of DM water. Pantoprazole sodium sesquihydrate samples were analyzed at 290 nm and calibrations curve was established, indicating R^2 of 0.99. The following sets of equations are used to calculate equilibrium mole fraction, y2, and solubility, S (g/L), in ScCO2:1 y2=nsolute/nsolute+nCO2, where:2 […]/mol,and 3 […]/mol 4 […]) where nsolute and nCO2 are moles of solute (Pantoprazole sodium sesquihydrate) and CO2 in the sampling loop, respectively, Cs is the solute concentration (g/L), Ms and MCO2 are molecular weights of the solute and CO2 and S (g/L) is the equilibrium solubility.

- Enthalpy of solvation, ΔHsol ([1]; Bartle et al. and Chrastil models combination (difference of ΔHvap and ΔHtotal)): −15.829 kJ/mol and −15.829^d kJ/mol
- Enthalpy of vaporization ΔHvap ([1]; from Bartle et al. model (ΔvapH = −G1R)): ~75.261^c (approximate value) kJ/mol
- Total enthalpy, ΔHtotal ([1]; from Reformulated Chrastil model): 39.832^b kJ/mol
- y2 × 10^4 (mole fraction) ([2]; in ScCO2, 308 K, 12 MPa, ScCO2 density 769 kg/m^3): 0.0648 mole fraction
- y2 × 10^4 (mole fraction) ([2]; in ScCO2, 308 K, 15 MPa, ScCO2 density 817 kg/m^3): 0.0764 mole fraction
- y2 × 10^4 (mole fraction) ([2]; in ScCO2, 308 K, 18 MPa, ScCO2 density 849 kg/m^3): 0.0921 mole fraction
- y2 × 10^4 (mole fraction) ([2]; in ScCO2, 308 K, 21 MPa, ScCO2 density 875 kg/m^3): 0.0958 mole fraction
- y2 × 10^4 (mole fraction) ([2]; in ScCO2, 308 K, 24 MPa, ScCO2 density 896 kg/m^3): 0.1239 mole fraction
- y2 × 10^4 (mole fraction) ([2]; in ScCO2, 308 K, 27 MPa, ScCO2 density 914 kg/m^3): 0.1489 mole fraction
- y2 × 10^4 (mole fraction) ([2]; in ScCO2, 318 K, 12 MPa, ScCO2 density 661 kg/m^3): 0.0548 mole fraction
- y2 × 10^4 (mole fraction) ([2]; in ScCO2, 318 K, 15 MPa, ScCO2 density 744 kg/m^3): 0.0580 mole fraction
- y2 × 10^4 (mole fraction) ([2]; in ScCO2, 318 K, 18 MPa, ScCO2 density 791 kg/m^3): 0.0990 mole fraction
- y2 × 10^4 (mole fraction) ([2]; in ScCO2, 318 K, 21 MPa, ScCO2 density 824 kg/m^3): 0.1192 mole fraction
- y2 × 10^4 (mole fraction) ([2]; in ScCO2, 318 K, 24 MPa, ScCO2 density 851 kg/m^3): 0.1436 mole fraction
- y2 × 10^4 (mole fraction) ([2]; in ScCO2, 318 K, 27 MPa, ScCO2 density 872 kg/m^3): 0.1930 mole fraction
- y2 × 10^4 (mole fraction) ([2]; in ScCO2, 328 K, 12 MPa, ScCO2 density 509 kg/m^3): 0.0381 mole fraction
- y2 × 10^4 (mole fraction) ([2]; in ScCO2, 328 K, 15 MPa, ScCO2 density 656 kg/m^3): 0.0498 mole fraction
- y2 × 10^4 (mole fraction) ([2]; in ScCO2, 328 K, 18 MPa, ScCO2 density 725 kg/m^3): 0.1388 mole fraction
- y2 × 10^4 (mole fraction) ([2]; in ScCO2, 328 K, 21 MPa, ScCO2 density 769 kg/m^3): 0.1579 mole fraction
- y2 × 10^4 (mole fraction) ([2]; in ScCO2, 328 K, 24 MPa, ScCO2 density 802 kg/m^3): 0.2354 mole fraction
- y2 × 10^4 (mole fraction) ([2]; in ScCO2, 328 K, 27 MPa, ScCO2 density 829 kg/m^3): 0.3106 mole fraction
- y2 × 10^4 (mole fraction) ([2]; in ScCO2, 338 K, 12 MPa, ScCO2 density 388 kg/m^3): 0.0301 mole fraction
- y2 × 10^4 (mole fraction) ([2]; in ScCO2, 338 K, 15 MPa, ScCO2 density 557 kg/m^3): 0.0403 mole fraction
- y2 × 10^4 (mole fraction) ([2]; in ScCO2, 338 K, 18 MPa, ScCO2 density 652 kg/m^3): 0.1548 mole fraction
- y2 × 10^4 (mole fraction) ([2]; in ScCO2, 338 K, 21 MPa, ScCO2 density 710 kg/m^3): 0.1938 mole fraction
- y2 × 10^4 (mole fraction) ([2]; in ScCO2, 338 K, 24 MPa, ScCO2 density 751 kg/m^3): 0.3408 mole fraction
- y2 × 10^4 (mole fraction) ([2]; in ScCO2, 338 K, 27 MPa, ScCO2 density 783 kg/m^3): 0.4634 mole fraction
- cross over pressure ([2]; solubility isotherms 308-338 K in ScCO2, from Fig. 2): around 16.0 MPa
SMILES: COc1ccnc(C[S+]([O-])c2nc3ccc(OC(F)F)cc3[nH]2)c1OC (stereo not shown) [pantoprazole sodium sesquihydrate, Pantoprazole sodium sesquihydrate]
